In patent publication US4690949A, “Therapeutic drug for dementia” (priority 1985, dated 1987):
Entries after “also recorded” stand apart in the source; their conditions may differ.

Experiments:
patients with dementia [1] = test: Side effects in clinical study; type: in vivo
Description: (§1) Administration schedule of L-Threo-DOPS and schedule of clinical evaluation are as follows: [drawing 3]
(§2) Threo-DOPS were administered as follows; immediately after meals at 8:00, 12:00 and 17:00. Various psychological tests were performed at 10:00. The evaluations were performed on the day before and after administration of Threo-DOPS.

[2] = Acute toxicity LD50 in mice; details: mouse, in vivo
patients with dementia [3] = test: Overall clinical evaluation of effectiveness in dementia; type: in vivo
Excerpt: (§3) We have used following various tests: WAIS, Hasegawa's scale for intelligence, Osaka University tests for activity of daily life as well as mental functions, and records of psychological states. Furthermore, free association of letters and categories, paired memory test, Bourdon's test could safely be used to evaluate intelligence of demented patients, even with handicaps in hands or legs. We have done each test 4 times per patient at each point to evaluate the patient's mental state and thus this made us possible to get satisfactory statistical analysis.
Dementia could be classified into various clinical types according to the ethiology; such as Alzheimer's disease (AZ), senile dementia of Alzheimer type (SDAT), dementia due to the cerebral vascular diseases. We included these various types of dementia in this study.
as §1, §2
Evaluations were made as described below or by the methods used commonly.

parkinsonian patients = test: Clinical studies on parkinsonian patients; type: in vivo
[4] = system: aromatic L-amino acid decarboxylase; details: cited from earlier work
decarboxylase = details: compared with L-DOPA; cited from earlier work
patients with dementia [5] = test: Hasegawa's scale for intelligence; type: in vivo; parameters: key to Hasegawa (change after treatment): improved; .dwnarw.: aggravated; →: unchanged; details: for Hasegawa (change after treatment): 10 percent change from pretreatment baseline score
Excerpt: as §3, §1, §2
An increase or decrease of 10 percent from the pretreatment baseline score was regarded as "improved" or "aggravated".

patients with dementia [6] = test: N test (N mental function test); type: in vivo; parameters: key to N test (change after treatment): improved; .dwnarw.: aggravated; →: unchanged
Excerpt: as §3, §1, §2
Inoue, O.: Medical Journal of the Osaka University 26, 375-394 (1974)

patients with dementia [7] = test: Bourdon's test (Bourdon's delection test); type: in vivo; parameters: key to Bourdon's test (change after treatment): improved; .dwnarw.: aggravated; →: unchanged
Excerpt: as §3, §1, §2
3. Bourdon's delection test:
Matsumoto K and Samezima K: Introduction to Clinical Psychology Tests, Igaku Shuppan Sha (Tokyo), 1977, pp. 83-87
In this test, the original method was modified by enlarging the chart to make it easier for patients to see and conducting 4 test runs starting at different lines to investigate how far the task could be done in 30 seconds.

patients with dementia [8] = test: Related words paired memory test; type: in vivo; parameters: key to Related words paired memory test (change after treatment): improved; .dwnarw.: aggravated; →: unchanged
Excerpt: as §3, §1, §2
This retention test using 10 pairs of related words was conducted in 4 trials and the results were compared before and after the treatment.

patients with dementia [9] = test: Digit symbol test (modified WAIS); type: in vivo
Excerpt: as §3, §1, §2
The original method of WAIS was partially modified. The test was repeated 4 times and counted time-in seconds which was required to finish one line or checked how far the subject could go along one line in 30 seconds.

patients with dementia [10] = test: Free association (letters and categories); type: in vivo; parameters: key to Free association, Letter / Free association, Category: improved; .dwnarw.: aggravated; →: unchanged
Excerpt: as §3, §1
Threo-DOPS were administered as follows; immediately after meals at 8:00, 12:00 and 17:00. Various psychological tests were performed at 10:00. The evaluations were performed on the day before and after administration of Threo-DOPS. […]
In this test, the subject was asked to say what would occur in mind by free association in response to the 4 letters of " " (a), " " (ka), " " (sa) and " " (ha) and the four categories of "fruits" or "vegetables", "flowers or trees", "animals" and "countries of the world" within 90 seconds and the number of words every 30 seconds was counted.

patients with dementia [11] = test: P300 auditory evoked brain potential; type: in vivo; parameters: key: +: appeared; -: disappeared
Description: as §1, §2
When two kinds of auditory stimuli are given randomly, a positive brain potential (P300) appears with a latency of about 300 msec in normal subjects and this response has been considered to reflect gnostic function. [Sutton, S. et al.: Science 150, 1187-1188 (1965)].
Using the method of Goodin, D. S. et al., the present inventors asked the subject to hear sounds of 1000 Hz and also 2000 Hz randomly given at intervals of about 1 second and to count the sounds of 2000 Hz which appeared 15% of the total number of sounds which were 400. The evoked potentials were averaged and totalled for each 1000 Hz and 2000 Hz stimulations and the latency and the amplitude of P300 were measured.

[12] = Clinical comparison of L-isomer and DL-form activity; type: in vivo
[13] = Case 7, left thalamic hemorrhage (case report)
[14] = Case 9, cerebral infarction (case report)
[15] = Case 1, Alzheimer's disease (case report)

With `N[C@H](C(=O)O)[C@H](O)c1ccc(O)c(O)c1` (relative stereo) [DL-Threo-DOPS] the “Side effects (clinically)” value (patients with dementia [1]; human, in vivo) was “almost no side effect has been observed”, the LD50 ([2]; ip) was roughly 10000 mg/kg and the LD50 ([2]; po) was no less than 10000 mg/kg.

With `N[C@H](C(=O)O)[C@H](O)c1ccc(O)c(O)c1` (relative stereo) [Threo-DOPS, threo-3,4-dihydroxyphenylserine] the “Effect on symptoms of dementia” value (patients with dementia [3]; summary statement) was “improving effect on some symptoms of dementia”, the Side effects (patients with dementia [1]; human, in vivo) was “without any appreciable side effects” and the “Effectiveness as a NE precursor” value (parkinsonian patients) was “effectiveness of Threo-DOPS as a NE precursor”. The “Conversion to norepinephrine (NE)” value ([4]; in the living body) was “decarboxylated by an action of an aromatic L-amino acid decarboxylase existing in the living body and converted into norepinephrine (NE); also recorded: gradually converted to NE in the living body”, the “Rate of decarboxylation relative to L-DOPA” value ([4]; previous study of the present applicants) was “considerably smaller than that of L-DOPA” and the “Effectiveness of combined use of DCI” value (decarboxylase) was “not so effective as that for L-DOPA”.

In the case of `N[C@@H](Cc1ccc(O)c(O)c1)C(=O)O` [L-DOPA, reference compound], the Decarboxylation to dopamine ([4]; in the living body) is listed as “decarboxylated to the corresponding catecholamine, dopamine”.

For `N[C@H](C(=O)O)[C@H](O)c1ccc(O)c(O)c1` [L-Threo-DOPS], the “Hasegawa (change after treatment)” value (patients with dementia [5]; Case 3, CI) was “.dwnarw”, the “Hasegawa (change after treatment)” value (patients with dementia [5]; Case 6, AZ/CI, person) was “→” and the “Hasegawa's scale” value (patients with dementia [5]; [13]) was “Improvements were obtained”. For the same compound, the “Hasegawa's scale” value (patients with dementia [5]; [14]) was “Improvements were found”, the “N test (change after treatment)” value (patients with dementia [6]; Case 5, CI) was “→” and the “N test (change after treatment)” value (patients with dementia [6]; Case 6, AZ/CI, person) was “→”. For the same compound, the “N mental function test” value (patients with dementia [6]; [13]) was “Improvements were obtained”, the “N mental function test” value (patients with dementia [6]; [14]) was “Improvements were found” and the “Bourdon's test (change after treatment)” value (patients with dementia [7]; Case 1, AZ) was “→”. For the same compound, the “Bourdon's test (change after treatment)” value (patients with dementia [7]; Case 2, AZ) was “→”, the “Bourdon's test (change after treatment)” value (patients with dementia [7]; Case 3, CI) was “→” and the “Bourdon's test, statistics” value (patients with dementia [7]; Case 4, CI) was “** (P<0.02)”. The “Bourdon's test (change after treatment)” value (patients with dementia [7]; Case 6, AZ/CI, person) was “→”, the “Bourdon's test (change after treatment)” value (patients with dementia [7]; Case 9, CI) was “→” and the “Related words paired memory test, statistics” value (patients with dementia [8]; Case 1, AZ) was “*** (P<0.01)”. The “Related words paired memory test” value (patients with dementia [8]; [15]) was “Improvements were found”, the “Related words paired memory test, statistics” value (patients with dementia [8]; Case 2, AZ) was “*** (P<0.01)” and the “Related words paired memory test (change after treatment)” value (patients with dementia [8]; Case 4, CI) was “→”. For the same compound, the “Related words paired memory test (change after treatment)” value (patients with dementia [8]; Case 5, CI) was “.uparw”, the “Related words paired memory test, statistics” value (patients with dementia [8]; Case 5, CI) was “* (P<0.05)” and the “Related words paired memory test (change after treatment)” value (patients with dementia [8]; Case 6, AZ/CI, person) was “→”. The “Related words paired memory test, statistics” value (patients with dementia [8]; Case 9, CI) was “** (P<0.02)”, the “Related words paired memory test” value (patients with dementia [8]; [14]) was “Improvements were found” and the “Digit symbol test, statistics” value (patients with dementia [9]; Case 1, AZ) was “* (P<0.05)”. For the same compound, the Digit symbol test (patients with dementia [9]; [15]) was “Improvements were found”, the “Free association, Category” value (patients with dementia [10]; Case 2, AZ) was “→” and the “Free association, Letter” value (patients with dementia [10]; Case 2, AZ) was “→”. The “Free association, Category” value (patients with dementia [10]; Case 3, CI) was “→”, the “Free association, Category” value (patients with dementia [10]; Case 4, CI) was “→” and the “Free association, Letter” value (patients with dementia [10]; Case 4, CI) was “→”. For the same compound, the “Free association, Category” value (patients with dementia [10]; Case 5, CI) was “→”, the “Free association, Letter” value (patients with dementia [10]; Case 5, CI) was “→” and the “Free association, Category” value (patients with dementia [10]; Case 6, AZ/CI, person) was “→”. The “Free association, Letter” value (patients with dementia [10]; Case 6, AZ/CI, person) was “→”, the “Free association of things” value (patients with dementia [10]; [13]) was “Improvements were obtained” and the “Free association, Category” value (patients with dementia [10]; Case 9, CI) was “→”. The “Free association, Letter” value (patients with dementia [10]; Case 9, CI) was “→”, the P300 (patients with dementia [11]; Case 2, AZ) was “+” and the P300 (patients with dementia [11]; Case 3, CI) was “-”. The P300 (patients with dementia [11]; Case 4, CI) was “+”, the P300 (patients with dementia [11]; Case 5, CI) was “-” and the P300 (patients with dementia [11]; Case 6, AZ/CI, person) was “-”. For the same compound, the P300 (patients with dementia [11]; [13]) was “could not be observed before the treatment, appeared after the treatment”, the P300 (patients with dementia [11]; Case 9, CI) was “-” and the Overall evaluation (patients with dementia [3]; Case 1, Alzheimer's disease) was “moderately improved”. The Global evaluation (patients with dementia [3]; Case 7, left thalamic hemorrhage) was “markedly improved”, the Global evaluation (patients with dementia [3]; Case 9, cerebral infarction) was “moderately improved” and the “Evaluation parameters showing aggravation” value (patients with dementia [3]; Cases 1 to 9, Table 1) was “only a few evaluation parameters showed aggravation”. For the same compound, the “Subjects showing improvements in one or more tests” value (patients with dementia [3]; Cases 1 to 9, Table 1) was “all subjects but Case 6 showed improvements in one or more tests”, the “Overall evaluation: efficacy against symptoms of patients with dementia” value (patients with dementia [3]; as a whole) was “had efficacy against symptoms of patients with dementia” and the Side effects (patients with dementia [1]; Case 9, cerebral infarction) was “No remarkable side effects were found”. For the same compound, the “Side effects (clinically)” value (patients with dementia [1]; human, in vivo) was “almost no side effect has been observed”, the “Effect of L-isomer at half the amount of the DL-mixture” value ([12]; administered in half the amount of the DL-mixture) was “nearly the same effect as the DL-mixture” and the “Activity of L-isomer relative to DL-form” value ([12]; clinical study) was “twice as active as the DL-form”. For the same compound, the LD50 ([2]; ip) was roughly 10000 mg/kg and the LD50 ([2]; po) was no less than 10000 mg/kg.
